Measured values as given in patent US12440496B2, “Natriuretic peptide receptor a agonists useful for the treatment of cardiometabolic diseases, kidney disease and diabetes” (Merck Sharp & Dohme LLC, priority 2019, dated 2025).

The compounds below were run against T1, hNPRA (Homo sapiens, UniProt P16066) (assay: NPRA Functional Cell Assay (cGMP HTRF, NPRA HEK JumpIn stable cells)). Settings: cGMP production, 1 hour at 37° C., 10-point dose response.
T1 construct: expressed in transfected cells
T1 sequence (P16066 33-1061): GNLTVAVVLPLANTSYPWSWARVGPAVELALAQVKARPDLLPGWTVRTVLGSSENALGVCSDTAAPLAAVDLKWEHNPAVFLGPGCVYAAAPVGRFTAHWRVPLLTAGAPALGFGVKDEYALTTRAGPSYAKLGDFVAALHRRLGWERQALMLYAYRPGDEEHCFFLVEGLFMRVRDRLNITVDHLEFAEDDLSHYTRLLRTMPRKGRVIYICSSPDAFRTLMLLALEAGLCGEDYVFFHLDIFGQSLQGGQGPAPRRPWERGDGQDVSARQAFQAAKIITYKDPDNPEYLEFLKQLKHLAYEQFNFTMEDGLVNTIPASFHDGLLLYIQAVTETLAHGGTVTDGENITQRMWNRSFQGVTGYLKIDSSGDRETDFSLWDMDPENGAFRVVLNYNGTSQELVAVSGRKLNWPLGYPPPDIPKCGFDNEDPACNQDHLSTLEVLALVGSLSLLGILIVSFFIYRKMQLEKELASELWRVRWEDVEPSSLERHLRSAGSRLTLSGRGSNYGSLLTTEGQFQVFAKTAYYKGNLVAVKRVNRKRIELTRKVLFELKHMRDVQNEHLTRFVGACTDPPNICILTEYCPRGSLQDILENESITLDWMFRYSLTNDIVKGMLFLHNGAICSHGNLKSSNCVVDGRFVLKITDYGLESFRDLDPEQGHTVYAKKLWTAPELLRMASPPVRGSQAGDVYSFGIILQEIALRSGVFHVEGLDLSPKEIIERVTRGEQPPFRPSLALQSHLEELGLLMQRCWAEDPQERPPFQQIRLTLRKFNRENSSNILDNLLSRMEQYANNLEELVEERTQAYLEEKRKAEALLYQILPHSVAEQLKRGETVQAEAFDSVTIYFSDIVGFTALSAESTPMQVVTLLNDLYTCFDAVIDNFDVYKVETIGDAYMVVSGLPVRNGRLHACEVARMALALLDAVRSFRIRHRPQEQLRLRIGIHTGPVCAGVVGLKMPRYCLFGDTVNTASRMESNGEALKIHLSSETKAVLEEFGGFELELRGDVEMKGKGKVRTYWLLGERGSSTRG
Type: cell-based
How it was run: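 cGMP HTRF read-out after 1 hour compound treatment at 37° C. of human NPRA-expressing HEK JumpIn cells, 1500 cells/well, in buffer with phosphodiesterase inhibitors IBMX and RO20 (100 uM each). Signal converted to [cGMP] by calibration curve; EC50s fitted by 4-parameter logistic; 50 nM h-ANP as positive response.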

| SMILES | EC50 |
| --- | --- |
| CN(C)CC[C@@H](NC(=O)c1nc2cc3c(nc2s1)CC[C@H](C(C)(C)C)C3)c1cccc(C(=O)NCC2CCN(C)C2)c1 (mixture of isomers) [Example 88, rac-(7S)-7-tert-butyl-N-[rac-(1R)-3-(dimethylamino)-1-[3-[(1-methylpyrrolidin-3-yl)methylcarbamoyl]phenyl]propyl]-5,6,7,8-tetrahydrothiazolo[5,4-b] quinoline-2-carboxamide] | 230 nM |
| CC1(O)CCN(CC[C@@H](NC(=O)c2cc3cc4c(nc3s2)CC[C@H](C(C)(C)C)C4)c2ccc(-c3ccc(=O)[nH]c3)cc2)CC1 (racemic) [Example 45, rac-(6S)-6-tert-butyl-N-[rac-(1R)-3-(4-hydroxy-4-methyl-piperidin-1-ium-1-yl)-1-[4-(6-oxo-1H-pyridin-3-yl)phenyl]propyl]-5,6,7,8-tetrahydrothieno[2,3-b]quinoline-2-carboxamide;formate] | 673 nM |
| CN(C)[C@H]1CN(CC[C@@H](NC(=O)c2cc3cc4c(nc3s2)CC[C@H](C(C)(C)C)C4)c2ccc(-c3ccc(=O)[nH]c3)cc2)C[C@@H]1O (racemic) [Example 70, rac-(6S)-6-tert-butyl-N-[rac-(1R)-1-[4-(6-oxo-1H-pyridin-3-yl)phenyl]-3-[rac-(3S,4S)-3-(dimethylamino)-4-hydroxy-pyrrolidin-1-ium-1-yl]propyl]-5,6,7,8-tetrahydrothieno[2,3-b]quinoline-2-carboxamide;formate] | 1970 nM |
| CC(C)(C)[C@H]1CCc2nc3sc(C(=O)NC(CCN4CCCCC4)c4ccccc4)cc3cc2C1 (stereo partly drawn) [Example 242, (6S)-6-tert-butyl-N-(1-phenyl-3-piperidin-1-ylpropyl)-5,6,7,8-tetrahydrothieno[2,3-b]quinoline-2-carboxamide] | 1870 nM |
| CC(C)(C)[C@H]1CCc2nc3sc(C(=O)N[C@H](CCNC4CCOCC4)c4cccc(NS(C)(=O)=O)c4)cc3cc2C1 (racemic) [Example 10, ammonium; methylsulfonyl-[3-[rac-(1R)-1-[[rac-(6S)-6-tert-butyl-5,6,7,8-tetrahydrothieno[2,3-b]quinoline-2-carbonyl]amino]-3-(tetrahydro-pyran-4-ylamino)propyl]phenyl]azanide] | 710 nM |
| Cc1cc(-c2ccc([C@@H](CCN3CCCCC3)NC(=O)c3cc4cc5c(nc4s3)CC[C@H](C(C)(C)C)C5)cc2)cnc1O [Example 239, (6S)-6-tert-butyl-N-{(1R)-1-[4-(6-hydroxy-5-methylpyridin-3-yl)phenyl]-3-piperidin-1-ylpropyl}-5,6,7,8-tetrahydrothieno[2,3-b]quinoline-2-carboxamide] | 1400 nM |
| CC(C)C1(F)CCc2nc3sc(C(=O)N[C@H](CCN4CCC(O)CC4)c4ccc(N5CCOC5=O)cc4)nc3cc2C1 (stereo partly drawn) [Example 233, 7-fluoro-N-((R)-3-(4-hydroxypiperidin-1-yl)-1-(4-(2-oxooxazolidin-3-yl)phenyl)propyl)-7-isopropyl-5,6,7,8-tetrahydrothiazolo[5,4-b]quinoline-2-carboxamide] | 2040 nM |
| CC(C)(C)[C@H]1CCc2nc3sc(C(=O)NC(CCN4CCOCC4)c4ccccc4)cc3cc2C1 (stereo partly drawn) [Example 243, (6S)-6-tert-butyl-N-(3-morpholin-4-yl-1-phenylpropyl)-5,6,7,8-tetrahydrothieno[2,3-b]quinoline-2-carboxamide] | 6320 nM |
| CNC(=O)c1cccc([C@@H](CCN(C)C)NC(=O)c2nc3cc4c(nc3s2)CC[C@H](C(C)(C)C)C4)c1 (racemic) [Example 98, rac-(7S)-7-tert-butyl-N-[rac-(1R)-3-(dimethyl-amino)-1-[3-(methylcarbamoyl)phenyl]propyl]-5,6,7,8-tetrahydrothiazolo[5,4-b] quinoline-2-carboxamide] | 1450 nM |
| CC(C)(C)[C@H]1CCc2nc3sc(C(=O)N[C@H](CCN4CCC(n5cnnc5)CC4)c4ccc(-c5ccc(=O)[nH]c5)cc4)cc3cc2C1 (racemic) [Example 29, rac-(6S)-6-tert-butyl-N-[rac-(1R)-1-[4-(6-oxo-1H-pyridin-3-yl)phenyl]-3-[4-(1,2,4-triazol-4-yl)piperidin-1-ium-1-yl]propyl]-5,6,7,8-tetrahydrothieno[2,3-b]quinoline-2-carboxamide;formate] | 448 nM |

Further lines, results first:

| EC50 | SMILES |
| --- | --- |
| 901 nM | CN1CC(CNC(=O)c2cccc([C@@H](CCN3CCC(O)CC3)NC(=O)c3nc4cc5c(nc4s3)CC[C@H](C(C)(C)C)C5)c2)CC1=O (mixture of isomers) [Example 159, rac-(7S)-7-tert-butyl-N-[rac-(1R)-3-(4-hydroxy-1-piperidyl)-1-[3-[(1-methyl-5-oxo-pyrrolidin-3-yl)methylcarbamoyl]phenyl]propyl]-5,6,7,8-tetrahydrothiazolo[5,4-b]quinoline-2-carboxamide] |
| 802 nM | CC(C)(C)[C@H]1CCc2nc3sc(C(=O)N[C@H](CCN4CCC(O)CC4)c4ccc(-n5cncn5)cc4)nc3cc2C1 [Example 84, (7S)-7-tert-butyl-N-[(1R)-3-(4-hydroxy-piperidin-1-ium-1-yl)-1-[4-(1,2,4-triazol-1-yl)phenyl]propyl]-5,6,7,8-tetra-hydrothiazolo[5,4-b] quinoline-2-carboxamide; 2,2,2-trifluoro-acetate] |
| 132 nM | CC(C)(C)[C@H]1CCc2nc3sc(C(=O)N[C@H](CCN4CCC(O)CC4)c4cccc(C(=O)N[C@@H]5CNC[C@H]5O)c4)nc3cc2C1 (racemic) [Example 135, rac-(7S)-7-tert-butyl-N-[rac-(1R)-3-(4-hydroxy-1-piperidyl)-1-[3-[[rac-(3R,4R)-4-hydroxypyrrolidin-3-yl]carbamoyl]phenyl]propyl]-5,6,7,8-tetrahydrothiazolo[5,4-b]quinoline-2-carboxamide] |
| 632 nM | Cc1n[nH]c(C)c1Oc1ccc([C@@H](CCN2CCC(O)CC2)NC(=O)c2nc3cc4c(nc3s2)CC[C@H](C(C)(C)C)C4)cn1 (racemic) [Example 191, rac-(7S)-7-tert-butyl-N-[rac-(1R)-1-[6-[(3,5-dimethyl-1H-pyrazol-4-yl)oxy]-3-pyridyl]-3-(4-hydroxy-1-piperidyl)propyl]-5,6,7,8-tetrahydrothiazolo[5,4-b]quinoline-2-carboxamide] |
| 830 nM | CC(C)(C)[C@H]1CCc2nc3sc(C(=O)N[C@H](CCN4CCC(O)CC4)c4cccc(C(=O)N5CC(O)C5)c4)nc3cc2C1 (racemic) [Example 156, rac-(7S)-7-tert-butyl-N-[rac-(1R)-1-[3-(3-hydroxyazetidine-1-carbonyl)phenyl]-3-(4-hydroxy-1-piperidyl)propyl]-5,6,7,8-tetrahydrothiazolo[5,4-b]quinoline-2-carboxamide] |
| 1610 nM | CC(C)(C)[C@H]1CCc2nc3sc(C(=O)N[C@H](CCN4CCC(O)CC4)c4ccc(-c5cc(=O)[nH]c(=O)[nH]5)cc4)nc3cc2C1 (racemic) [Example 182, rac-(7S)-7-tert-butyl-N-[rac-(1R)-1-[4-(2,4-dioxo-1H-pyrimidin-6-yl)phenyl]-3-(4-hydroxy-1-piperidyl)propyl]-5,6,7,8-tetrahydrothiazolo[5,4-b]quinoline-2-carboxamide] |
| 682 nM | CC(C)(C)[C@H]1CCc2nc3sc(C(=O)N[C@H](CCN4CCC(O)CC4)c4cccc(C(=O)NCCO)c4)nc3cc2C1 (racemic) [Example 151, rac-(7S)-7-tert-butyl-N-[rac-(1R)-1-[3-(2-hydroxyethylcarbamoyl)phenyl]-3-(4-hydroxy-1-piperidyl)propyl]-5,6,7,8-tetrahydrothiazolo[5,4-b]quinoline-2-carboxamide] |
| 518 nM | CC(C)(C)[C@H]1CCc2nc3sc(C(=O)N[C@H](CCN4CCCCC4)c4ccc(-c5cnc(=O)[nH]c5)cc4)cc3cc2C1 (racemic) [Example 2, rac-(6S)-6-tert-butyl-N-[rac-(1R)-1-[4-(2-oxo-1H-pyrimidin-5-yl)phenyl]-3-(1-piperidyl)propyl]-5,6,7,8-tetrahydrothieno[2,3-b]quinoline-2-carboxamide] |
| 200 nM | CC(C)(C)[C@H]1CCc2nc3sc(C(=O)N[C@H](CCN4CCC(C(=O)O)CC4)c4ccc(-c5cnc(O)c(F)c5)cc4)nc3cc2C1 [Example 223, 1-((R)-3-((S)-7-(tert-butyl)-5,6,7,8-tetrahydrothiazolo[5,4-b]quinoline-2-carboxamido)-3-(4-(5-fluoro-6-hydroxypyridin-3-yl)phenyl)propyl)piperidine-4-carboxylic acid] |
